Source: patent US8394971B2, “Indole derivatives as selective androgen receptor modulators (SARMS)” (Janssen Pharmaceutica N.V., priority 2004, dated 2013)

Test system: testosterone-enhanced ventral prostate and seminal vesicle weights in castrated male Sprague Dawley rats
Test: Ventral Prostate and Seminal Vesicle Weight In Vivo Assay
Parameters: species or system rat
Conditions: immature castrated rats; once daily for five days, usually orally at 40 mg/kg, with testosterone propionate 2 mg/kg s.c.
Protocol: Immature (approximately 50 g) castrated male Sprague Dawley rats (Charles River) were treated once daily for five days with test compound (usually given orally at 40 mg/kg in a volume of 0.3 mL, in 30% cyclodextrin or 0.5% methylcellulose vehicle) and with testosterone propionate (given subcutaneously by injection at the nape of the neck at 2 mg/kg, in a volume of 0.1 mL in sesame oil). On the sixth day, the rats were euthanized by asphyxiation in carbon dioxide. Ventral prostates and seminal vesicles were removed and their wet weights determined.
A test compound was said to be “active” if the non weight adjusted prostate weight was ≦40 mg or the % Inhibition prostate weight, body weight adjusted was ≧40% @2 mg/day dosage.

SMILES | active / inactive (inhibition of testosterone-enhanced prostate weight)
CC(C)(O[Si](C)(C)C)c1cc2cc(Cl)c(C(F)(F)F)cc2n1S(C)(=O)=O [compound 270] | inactive
CC(C)(O)c1[nH]c2cc(C(F)(F)F)c(C#N)cc2c1Br [compound 288] | active
CC(C)(O)c1[nH]c2cc(C(F)(F)F)c(C#N)cc2c1I [compound 278] | active
CC(C)(O)c1[nH]c2cc(C(F)(F)F)c(C#N)cc2c1C#N [compound 295] | inactive
CCSCC(C)(O)c1[nH]c2cc(C(F)(F)F)c([N+](=O)[O-])cc2c1I (single isomer, unassigned) [compound 241] | inactive
CC(O)(C[S+]([O-])CC(F)(F)F)c1cc2cc([N+](=O)[O-])c(C(F)(F)F)cc2[nH]1 (mixture of isomers) [compound 205] | active
Cc1c(C(C)(C)O)[nH]c2cc(C(F)(F)F)c([N+](=O)[O-])cc12 [compound 290] | inactive
CSCn1c(C(C)(O)C(F)(F)F)cc2cc(C#N)c(C(F)(F)F)cc21 (racemic) [compound 333] | active
CCS(=O)(=O)CC(O)c1cc2cc(C#N)c(C(F)(F)F)cc2[nH]1 (racemic) [compound 412] | inactive
CCS(=O)(=O)CC(C)(O)c1cc2cc(C#N)c(C(F)(F)F)cc2[nH]1 (racemic) [compound 407] | inactive
C=Cc1c(C(C)(C)O)[nH]c2cc(C(F)(F)F)c([N+](=O)[O-])cc12 [compound 281] | inactive
CC(O)(c1cc2cc(C#N)c(C(F)(F)F)cc2[nH]1)C(F)(F)F (stereo not drawn) [Compound #329, 2-(2,2,2-Trifluoro-1-hydroxy-1-methyl-ethyl)-6-trifluoromethyl-1H-indole-5-carbonitrile] | active
CCSCC(C)(O)c1cc2cc(N)c(C(F)(F)F)cc2[nH]1 (stereo not drawn) [compound 166] | inactive
CCSCC(C)(O)c1[nH]c2cc(C(F)(F)F)c(C#N)cc2c1I (single isomer, unassigned) [compound 349] | active
CCS(=O)(=O)CC(C)(O)c1cc2cc(Cl)c(C(F)(F)F)cc2[nH]1 (racemic) [compound 404] | active
N#Cc1cc2cc(C(O)(C(F)(F)F)C(F)(F)F)[nH]c2cc1C(F)(F)F [compound 357] | active
CCSCC(C)(O)c1c(C)c2cc(C#N)c(C(F)(F)F)cc2n1C (single isomer, unassigned) [compound 318] | inactive
CCSCC(C)(O)c1[nH]c2cc(C(F)(F)F)c(C#N)cc2c1C#C[Si](C)(C)C (racemic) [compound 325] | inactive
CCSCC(C)(O)c1cc2cc(Cl)c(C#N)cc2[nH]1 (single isomer, unassigned) [compound 228] | inactive

SMILES | active / inactive (inhibition of testosterone-enhanced prostate weight)
CC(C)(O)c1[nH]c2cc(C(F)(F)F)c(Cl)cc2c1Cl [compound 282] | inactive
CC(C)(O)c1cc2cc([N+](=O)[O-])c(C(F)(F)F)cc2n1S(C)(=O)=O [compound 273] | inactive
CCSCC(C)(O)c1cc2cc(C#N)c(C)cc2[nH]1 (racemic) [compound 446] | inactive
CC(C)(O)c1[nH]c2cc(C(F)(F)F)c([N+](=O)[O-])cc2c1C#N [compound 291] | active
CCSCC(C)(O)c1cc2cc(C)c(C(F)(F)F)cc2[nH]1 (racemic) [compound 414] | inactive
CC(C)(O)c1cc2cc(Cl)c(C(F)(F)F)cc2[nH]1 [compound 285] | inactive
CC[S+]([O-])CC(C)(O)c1[nH]c2cc(C(F)(F)F)c(C#N)cc2c1C (mixture of isomers) [compound 319] | active
CCSCC(C)(O)c1cc2cc([N+](=O)[O-])c(C(F)(F)F)cc2o1 (racemic) [compound 9] | inactive
CCSCC(C)(O)c1cc2cc(Cl)c(C(F)(F)F)cc2n1S(C)(=O)=O (racemic) [compound 146] | inactive
CC(C)(O)c1[nH]c2cc(C(F)(F)F)c(Cl)cc2c1Br [compound 280] | inactive
CC(O)(COc1ccc(C#N)c(C(F)(F)F)c1)c1cc2cc(C#N)c(C(F)(F)F)cc2[nH]1 (stereo not drawn) [Compound #429, 2-[2-(4-Cyano-3-trifluoromethyl-phenoxy)-1-hydroxy-1-methyl-ethyl]-6-trifluoromethyl-1H-indole-5-carbonitrile] | inactive
CC(O)(CSCc1ccccn1)c1cc2cc([N+](=O)[O-])c(C(F)(F)F)cc2[nH]1 (racemic) [compound 204] | inactive
CC(C)(O)c1cc2cc(Br)ccc2[nH]1 [compound 294] | inactive
CCSCC(C)(O)c1cc2cc(Cl)ccc2[nH]1 (racemic) [compound 353] | inactive
CC(C)(O)c1cc2cc([N+](=O)[O-])c(C(F)(F)F)cc2[nH]1 [compound 274] | inactive
CC(O)(c1[nH]c2cc(C(F)(F)F)c(C#N)cc2c1I)C(F)(F)F (racemic) [compound 330] | active
CCSCC(C)(O)c1[nH]c2cc(C(F)(F)F)c([N+](=O)[O-])cc2c1I (single isomer, unassigned) [compound 244] | active
CC(O)(CS(=O)(=O)c1ccc(F)cc1)c1cc2cc(Cl)c(C(F)(F)F)cc2[nH]1 (stereo not drawn) [compound 85] | inactive
CC(C)(O)c1[nH]c2cc(C(F)(F)F)c([N+](=O)[O-])cc2c1Br [compound 277] | active

SMILES | active / inactive (inhibition of testosterone-enhanced prostate weight)
CCSCC(O)c1[nH]c2cc(C(F)(F)F)c(C#N)cc2c1Br (racemic) [compound 413] | inactive
CCSCC(C)(O)c1[nH]c2cc(C(F)(F)F)c(C#N)cc2c1I (racemic) [compound 324] | inactive
CCSCC(O)(c1cc2cc(C#N)c(C(F)(F)F)cc2[nH]1)C(F)(F)F (racemic) [compound 327] | active
CC(C)(O)c1cc2cc(Cl)c(Cl)cc2[nH]1 [compound 405] | inactive
CCSCC(O)c1cc2cc(C#N)c(C(F)(F)F)cc2[nH]1 (racemic) [compound 410] | inactive
CCSCC(C)(O)c1cc2cc(C#N)c(C(F)(F)F)cc2n1CC#N (racemic) [compound 323] | inactive
CCSCC(C)(O)c1cc2cc(C#N)c(C(F)(F)F)cc2n1COC (racemic) [compound 322] | inactive
CCS(=O)(=O)CC(C)(O)c1cc2cc(C#N)c(C(F)(F)F)cc2[nH]1 (single isomer, unassigned) [compound 397] | inactive
CCSCC(C)(O)c1cc2cc(C#N)c(C)c(I)c2[nH]1 (racemic) [compound 415] | inactive
CCS(=O)(=O)CC(C)(O)c1cc2cc([N+](=O)[O-])c(C(F)(F)F)cc2n1C (single isomer, unassigned) [compound 250] | active
CC(C)(O)c1cc2cc(Cl)c(C(F)(F)F)cc2n1S(C)(=O)=O [compound 284] | active
CCSCC(C)(O)c1cc2cc(C#N)ccc2[nH]1 (racemic) [compound 403] | inactive
CC(C)(O)c1[nH]c2cc(C(F)(F)F)c([N+](=O)[O-])cc2c1I [compound 276] | active
CCS(=O)(=O)CC(C)(O)c1cc2cc([N+](=O)[O-])c(C(F)(F)F)cc2[nH]1 (stereo not drawn) [compound 175] | active
CCS(=O)(=O)CC(C)(O)c1cc2cc([N+](=O)[O-])c(C(F)(F)F)cc2n1C (single isomer, unassigned) [compound 232] | active
CCSCC(C)(O)c1cc2cc(C#N)c(Cl)cc2[nH]1 (racemic) [compound 224] | active
CC(C)(O)c1[nH]c2cc(C(F)(F)F)c(C#N)cc2c1Cl [compound 287] | inactive
CC(C)(O)c1[nH]c2cc(C(F)(F)F)c(Cl)cc2c1I [compound 279] | inactive
N#Cc1cc2cc(C3(O)CCSC3)[nH]c2cc1C(F)(F)F (stereo not drawn) [Compound #15] | inactive
